The subject of this test is type I collagen deposition in primary lung fibroblasts. Description: Highthroughput type I collagen deposition (scar-in-a-jar) high content screening assay. In kind it is cell-based. To be noted: Homo sapiens, Primary lung fibroblast, 72 h, human pulmonary fibroblasts, TGF-β 1 ng/ml, Ficoll crowding, mean of multiple experiments, read-out: mean pIC50, inhibition of type I collagen deposition (converted). The method, then: Example 53 Highthroughput Type I Collagen Deposition (Scar-in-a-Jar) High Content Screening Assay
Highthroughput, cellular type I collagen deposition was measured by adapting a published method; scar-in-a-jar (Chen et al., 2009) to primary lung fibroblasts derived from human tissue and combining with high content analysis to permit fluorescent quantification of collagen deposited in the extracellular matrix (ECM). The human biological samples were sourced ethically and their research use was in accord with the terms of the informed consents
Test compounds were dissolved in 100% DMSO to give 10 mM (stocks) and further diluted to give half log dilutions to generate an 11 point concentration response curve. 1 ul was transferred to 384-well plates (Greiner Group, Kremsmunster, Austria, Catalogue No Greine 781280r).
Human pulmonary fibroblasts were maintained in DMEM media (Gibco, Catalogue No 21969) supplemented with 4 mM L-glutamine (Gibco Catalogue No 25030-024) and 10% heat inactivated FBS (Gibco, Catalogue No 10099-141) at 37° C. in 10% CO2. Cells were harvested and resuspended at 4×10^6 cells/ml in a T175 cell culture flask (BD Falcom, Catalogue No: 353112) containing 50 mL of culture media. After 4 days 37° C. in 10% CO2, cells were harvested and seeded at 4000 cells per well (50 μL/well) into 384-well plates (BD Falcon, Catalogue No 353962Greiner) in assay media (0.4% heat inactivated FBS, 4 mM L-glutamine). Plates were sealed with breathable seals (Sigma, Catalogue No. BEM-1). Assay plates were incubated for 72 h at 37° C. in 10% CO2.
Assay media was supplemented with 112.5 mg/ml Ficoll 70 (Sigma, Catalogue No F2878), 75 mg/ml Ficoll 400 (Sigma, Catalogue No F4375) and 50 μg/ml ascorbic acid (Sigma, Catalogue No A8960). 30 μL assay media were added to 1 μl compound (37 μM compound concentration in 1% DMSO). Diluted compounds (10 μL) were transferred to plates containing cells and incubated for 3 h at 37° C. in 10% CO2. Transforming growth factor (TGF)-β (R&D systems, Catalogue No 100-B/CF) was reconstituted to give 10 μg/mL (stock) and further diluted in assay media containing Ficoll and ascorbic acid (1 in 3333). TGF-β was added to cell plates (1 ng/ml final) and cells incubated for 72 h at 37° C. in 10% CO2.
Media was aspirated from cells and 30 μL/well 100% ice-cold methanol added and incubated at RT for 5 min to fix cells. Methanol was aspirated and cells washed with PBS (3×). To block and permeabilise, cells were incubated with PBS containing 1% BSA and 0.1% Triton X 100 for 20 min, followed by PBS wash (3×). Cells were incubated with mouse anti human type I collagen monoclonal antibody (Sigma, Catalogue No C2456) diluted 1:1000 in PBS for 24 h at 4° C. Cells were washed with PBS containing 0.1% Tween-20 (3×) and incubated with secondary alexa fluor 488 goat-anti-mouse antibody (Invitrogen, Catalogue No A11001, 1 in 500 in PBS) and Hoechst 33342 (Sigma, Catalogue No H21492), 1 in 1000 in PBS) for 1 h at RT, prior to washing with PBS containing 0.1% Tween (×4).
Type I collagen immunoreactivity was detected using the INCell 2000 Analyzer (GE Healthcare, INcell 2000) set to excitation and emission wavelengths for DAPI and FITC with laser focus and exposure adjusted to appropriate levels. Images were imported and analysed using Columbus software (Perkin Elmer) and computational algorithms to quantify “total collagen area” and “cell count”.
Data analysis was performed by determining % inhibition values for test compounds relative to the minimum (media only) and maximum responses (TGF-βstimulation) with non-linear regression analysis to determine IC50 values for test compounds.

As for `CNCc1cc2nc(-c3cc(C(C)(C)S(C)(=O)=O)cc(N4CCOC[C@@H]4C)n3)ccc2[nH]1` [Example 2, (S)—N-methyl-1-(5-(6-(3-methylmorpholino)-4-(2-(methylsulfonyl)propan-2-yl)pyridin-2-yl)-1H-pyrrolo[3,2-b]pyridin-2-yl)methanamine], the IC50 is 39.8 to 1000 nM.
In the case of `CNCc1cc2nc(-c3cc(C(C)(C)S(C)(=O)=O)cc(N4[C@@H]5CC[C@H]4COC5)n3)ccc2[nH]1` [Example 3, 1-(5-(6-((1R,5S)-3-oxa-8-azabicyclo[3.2.1]octan-8-yl)-4-(2-(methylsulfonyl)propan-2-yl)pyridin-2-yl)-1H-pyrrolo[3,2-b]pyridin-2-yl)-N-methylmethanamine], the IC50 was 39.8 to 1000 nM.
On to `CNCc1cc2nc(-c3cc(C(C)(C)S(C)(=O)=O)cc(N4CC5CCC(C4)O5)n3)ccc2[nH]1` [Example 4, 1-(5-(6-(8-oxa-3-azabicyclo[3.2.1]octan-3-yl)-4-(2-(methylsulfonyl)propan-2-yl)pyridin-2-yl)-1H-pyrrolo[3,2-b]pyridin-2-yl)-N-methylmethanamine], for which the IC50 is 39.8 to 1000 nM.
For `CNCc1cc2nc(-c3cc(C(C)(C)S(C)(=O)=O)cc(N4C5CCCC4COC5)n3)ccc2[nH]1` [Example 5, 1-(5-(6-(3-oxa-9-azabicyclo[3.3.1]nonan-9-yl)-4-(2-(methylsulfonyl)propan-2-yl)pyridin-2-yl)-1H-pyrrolo[3,2-b]pyridin-2-yl)-N-methylmethanamine], the IC50 is 39.8 to 1000 nM.
`CNCc1cc2nc(-c3cc(CS(C)(=O)=O)cc(N4CCOC[C@@H]4C)n3)ccc2[nH]1` [Example 6, (S)—N-methyl-1-(5-(6-(3-methylmorpholino)-4-((methylsulfonyl)methyl)pyridin-2-yl)-1H-pyrrolo[3,2-b]pyridin-2-yl)methanamine]: the IC50 was 39.8 to 1000 nM.
`CCS(=O)(=O)C(C)(C)c1cc(-c2ccc3[nH]c(CNC)cc3n2)nc(N2CCOC[C@@H]2C)c1` [Example 7, (S)-1-(5-(4-(2-(ethylsulfonyl)propan-2-yl)-6-(3-methylmorpholino)pyridin-2-yl)-1H-pyrrolo[3,2-b]pyridin-2-yl)-N-methylmethanamine]: the IC50 was 39.8 to 1000 nM.
For the compound `CC[C@H]1COCCN1c1cc(C(C)(C)S(=O)(=O)C2CC2)cc(-c2ccc3[nH]c(CNC)cc3n2)n1` [Example 9, (S)-1-(5-(4-(2-(cyclopropylsulfonyl)propan-2-yl)-6-(3-ethylmorpholino)pyridin-2-yl)-1H-pyrrolo[3,2-b]pyridin-2-yl)-N-methylmethanamine], the IC50 is 39.8 to 100 nM.
Turning to `CC[C@H]1COCCN1c1cc(CS(=O)(=O)C2CC2)cc(-c2ccc3[nH]c(CNC)cc3n2)n1` [Example 10, (S)-1-(5-(4-((cyclopropylsulfonyl)methyl)-6-(3-ethylmorpholino)pyridin-2-yl)-1H-pyrrolo[3,2-b]pyridin-2-yl)-N-methylmethanamine], the IC50 is 39.8 to 1000 nM.
For the compound `CC[C@H]1COCCN1c1cc(C2(S(=O)(=O)C3CC3)CC2)cc(-c2ccc3[nH]c(CNC)cc3n2)n1` [Example 11, (S)-1-(5-(4-(1-(cyclopropylsulfonyl)cyclopropyl)-6-(3-ethylmorpholino)pyridin-2-yl)-1H-pyrrolo[3,2-b]pyridin-2-yl)-N-methylmethanamine], the IC50 was 39.8 to 100 nM.
With `CNCc1cc2nc(-c3cc(C(F)(F)S(C)(=O)=O)cc(N4CCOC[C@@H]4C)n3)ccc2[nH]1` [Example 12, (S)-1-(5-(4-(difluoro(methylsulfonyl)methyl)-6-(3-methylmorpholino)pyridin-2-yl)-1H-pyrrolo[3,2-b]pyridin-2-yl)-N-methylmethanamine], the IC50 is 39.8 to 1000 nM.
To `CC[C@H]1COCCN1c1cc(CS(C)(=O)=O)cc(-c2ccc3[nH]c(CNC)cc3n2)n1` [Example 13, (S)-1-(5-(6-(3-ethylmorpholino)-4-((methylsulfonyl)methyl)pyridin-2-yl)-1H-pyrrolo[3,2-b]pyridin-2-yl)-N-methylmethanamine] belongs 39.8 to 1000 nM.

The record behind these values is patent US11254671B2, “Chemical compounds” (GLAXOSMITHKLINE INTELLECTUAL PROPERTY DEVELOPMENT LIMITED, priority 2017, dated 2022).
